ChEMBL document CHEMBL4038272, “Synthesis and biological evaluation of novel podophyllotoxin-NSAIDs conjugates as multifunctional anti-MDR agents against resistant human hepatocellular carcinoma Bel-7402/5-FU cells” (Eur J Med Chem, 2017)
The source made the active and inactive calls. The rule behind the calls is not given here.

Experiments:
[1] = Resistant factor, ratio of IC50 for human Bel7402/5-FU cells to IC50 for human Bel7402 cells; format: functional
[2] = tested on: Bel7402/5-FU; assay: Antiproliferative activity against human Bel7402/5-FU cells after 72 hrs by CCK-8 assay; format: functional, cell-based
[3] = tested on: Bel-7402; assay: Antiproliferative activity against human Bel7402 cells after 72 hrs by CCK-8 assay; format: functional, cell-based; conditions: Bel-7402, 72 h
[4] = tested on: L02; assay: Antiproliferative activity against human LO2 cells after 72 hrs by CCK-8 assay; format: cell-based; conditions: L02, 72 h
[5] = tested on: Bel7402/5-FU; assay: Effect on COX2 expression in human Bel7402/5-FU cells assessed as ratio of COX2 to beta-actin level at 0.1 uM after 48 hrs by Western blot analysis (reference value: 0.36); format: functional
[6] = tested on: Bel7402/5-FU; assay: Effect on MRP1 expression in human Bel7402/5-FU cells assessed as ratio of MRP1 to beta-actin level at 0.1 uM after 48 hrs by Western blot analysis (reference value: 0.58); format: functional
[7] = tested on: Bel7402/5-FU; assay: Effect on CDK2 expression in human Bel7402/5-FU cells assessed as ratio of CDK2 to beta-actin level at 0.1 uM after 48 hrs by Western blot analysis (reference value: 0.43); format: functional
[8] = tested on: Bel7402/5-FU; assay: Effect on CDK1 expression in human Bel7402/5-FU cells assessed as ratio of CDK1 to beta-actin level at 0.1 uM after 48 hrs by Western blot analysis (reference value: 0.33); format: functional
[9] = target: Signal transducer and activator of transcription 3 (Homo sapiens) (UniProt P40763); assay: Effect on STAT3 phosphorylation in human Bel7402/5-FU cells assessed as ratio of phosphorylated STAT3 to beta-actin level at 0.1 uM after 48 hrs by Western blot analysis (reference value: 0.3); format: cell-based
Chain of Signal transducer and activator of transcription 3 (Homo sapiens) (P40763 whole entry): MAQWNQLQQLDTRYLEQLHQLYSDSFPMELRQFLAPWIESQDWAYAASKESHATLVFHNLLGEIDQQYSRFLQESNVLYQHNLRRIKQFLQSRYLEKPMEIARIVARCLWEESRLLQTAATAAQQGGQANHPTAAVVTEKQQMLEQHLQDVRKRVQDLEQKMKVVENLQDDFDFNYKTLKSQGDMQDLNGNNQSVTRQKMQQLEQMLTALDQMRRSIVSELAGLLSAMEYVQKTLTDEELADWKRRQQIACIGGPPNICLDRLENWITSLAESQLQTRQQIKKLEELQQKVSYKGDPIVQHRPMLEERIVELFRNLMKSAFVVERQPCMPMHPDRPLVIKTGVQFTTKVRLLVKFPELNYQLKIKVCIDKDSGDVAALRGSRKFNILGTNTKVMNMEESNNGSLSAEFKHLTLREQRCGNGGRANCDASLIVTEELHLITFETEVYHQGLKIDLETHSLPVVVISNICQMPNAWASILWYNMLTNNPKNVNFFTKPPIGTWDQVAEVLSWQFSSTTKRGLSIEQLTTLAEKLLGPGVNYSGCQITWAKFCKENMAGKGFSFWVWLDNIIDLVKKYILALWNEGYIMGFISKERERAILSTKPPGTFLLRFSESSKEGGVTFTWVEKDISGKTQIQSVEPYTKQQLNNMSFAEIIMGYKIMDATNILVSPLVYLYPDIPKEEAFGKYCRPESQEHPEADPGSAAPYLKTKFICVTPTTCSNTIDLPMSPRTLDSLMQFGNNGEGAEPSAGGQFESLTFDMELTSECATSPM

[10] = tested on: Bel7402/5-FU; assay: Induction of apoptosis in human Bel7402/5-FU cells assessed as early apoptotic cells at 0.1 uM after 48 hrs by Annexin V-APC/7-AAD staining based flow cytometry (reference value: 5.24%); format: functional
[11] = tested on: Bel7402/5-FU; assay: Antimigratory activity in human Bel7402/5-FU cells at 0.1 uM after 24 hrs by wound healing assay; format: functional, cell-based
[12] = tested on: Bel7402/5-FU; assay: Effect on COX1 expression in human Bel7402/5-FU cells assessed as ratio of COX1 to beta-actin level at 0.1 uM after 48 hrs by Western blot analysis (reference value: 0.48); format: functional
[13] = tested on: Bel7402/5-FU; assay: Cell cycle arrest in human Bel7402/5-FU cells assessed as accumulation at G1 phase at 0.1 uM after 48 hrs by propidium iodide staining based flow cytometry (reference value: 52.21%); format: functional
[14] = tested on: Bel7402/5-FU; assay: Induction of apoptosis in human Bel7402/5-FU cells assessed as necrotic cells at 0.1 uM after 48 hrs by Annexin V-APC/7-AAD staining based flow cytometry (reference value: 0.58%); format: functional
[15] = tested on: Bel7402/5-FU; assay: Induction of apoptosis in human Bel7402/5-FU cells assessed as condensed nuclei at 0.1 uM after 24 hrs by Hoechst 33342 staining based fluorescent microscopic method; format: functional, cell-based
[16] = tested on: Bel7402/5-FU; assay: Induction of apoptosis in human Bel7402/5-FU cells at 0.1 uM after 24 hrs by Hoechst 33342 staining based fluorescent microscopic method; format: functional, cell-based
[17] = tested on: Bel7402/5-FU; assay: Induction of apoptosis in human Bel7402/5-FU cells assessed as ratio of cleaved caspase-8 to beta-actin level at 0.1 uM after 48 hrs by Western blot analysis (reference value: 0.17); format: functional
[18] = tested on: Bel7402/5-FU; assay: Induction of apoptosis in human Bel7402/5-FU cells assessed as live cells at 0.1 uM after 48 hrs by Annexin V-APC/7-AAD staining based flow cytometry (reference value: 91.08%); format: functional
[19] = tested on: Bel7402/5-FU; assay: Reduction in microtubule density in human Bel7402/5-FU cells at 0.1 uM after 24 to 48 hrs by DAPI staining based immunofluorescence microscopic method; format: functional, cell-based
[20] = tested on: Bel7402/5-FU; assay: Effect on VEGFR2 expression in human Bel7402/5-FU cells assessed as ratio of VEGFR2 to beta-actin level at 0.1 uM after 48 hrs by Western blot analysis (reference value: 0.25); format: functional
[21] = tested on: Bel7402/5-FU; assay: Effect on cyclinB1 expression in human Bel7402/5-FU cells assessed as ratio of cyclinB1 to beta-actin level at 0.1 uM after 48 hrs by Western blot analysis (reference value: 0.53); format: functional
[22] = tested on: Bel7402/5-FU; assay: Cell cycle arrest in human Bel7402/5-FU cells assessed as accumulation at G2 phase at 0.1 uM after 48 hrs by propidium iodide staining based flow cytometry (reference value: 35.16%); format: functional
[23] = tested on: Bel7402/5-FU; assay: Effect on cyclinA expression in human Bel7402/5-FU cells assessed as ratio of cyclinA to beta-actin level at 0.1 uM after 48 hrs by Western blot analysis (reference value: 0.39); format: functional
[24] = tested on: Bel7402/5-FU; assay: Effect on P-gp expression in human Bel7402/5-FU cells assessed as ratio of P-gp to beta-actin level at 0.1 uM after 48 hrs by Western blot analysis (reference value: 0.59); format: functional
[25] = tested on: Bel7402/5-FU; assay: Induction of apoptosis in human Bel7402/5-FU cells assessed as ratio of cleaved PARP to beta-actin level at 0.1 uM after 48 hrs by Western blot analysis (reference value: 0.2); format: functional
[26] = tested on: Bel7402/5-FU; assay: Induction of apoptosis in human Bel7402/5-FU cells assessed as late apoptotic cells at 0.1 uM after 48 hrs by Annexin V-APC/7-AAD staining based flow cytometry (reference value: 3%); format: functional
[27] = target: RAC-alpha serine/threonine-protein kinase (Homo sapiens) (UniProt P31749); assay: Effect on AKT phosphorylation in human Bel7402/5-FU cells assessed as ratio of phosphorylated AKT to beta-actin level at 0.1 uM after 48 hrs by Western blot analysis (reference value: 0.39); format: cell-based
Chain of RAC-alpha serine/threonine-protein kinase (Homo sapiens) (P31749 whole entry): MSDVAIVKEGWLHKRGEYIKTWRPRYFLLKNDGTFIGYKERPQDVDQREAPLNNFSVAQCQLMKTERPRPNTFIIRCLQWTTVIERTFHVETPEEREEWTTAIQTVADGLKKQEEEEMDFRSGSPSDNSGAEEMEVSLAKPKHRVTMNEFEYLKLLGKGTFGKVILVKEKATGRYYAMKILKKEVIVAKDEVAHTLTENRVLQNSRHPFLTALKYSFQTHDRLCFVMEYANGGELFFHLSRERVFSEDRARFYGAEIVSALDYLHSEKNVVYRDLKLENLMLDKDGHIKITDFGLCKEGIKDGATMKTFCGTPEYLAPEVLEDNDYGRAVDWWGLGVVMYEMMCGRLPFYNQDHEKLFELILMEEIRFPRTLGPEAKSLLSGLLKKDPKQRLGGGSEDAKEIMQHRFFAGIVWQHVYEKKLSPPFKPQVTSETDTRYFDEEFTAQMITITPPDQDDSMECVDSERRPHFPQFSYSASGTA

[28] = tested on: Bel7402/5-FU; assay: Induction of apoptosis in human Bel7402/5-FU cells assessed as ratio of cleaved caspase-3 to beta-actin level at 0.1 uM after 48 hrs by Western blot analysis (reference value: 0.19); format: functional
[29] = tested on: Bel7402/5-FU; assay: Induction of apoptosis in human Bel7402/5-FU cells assessed as morphological changes at 0.1 uM after 24 hrs by Hoechst 33342 staining based fluorescent microscopic method; format: functional, cell-based
[30] = tested on: Bel7402/5-FU; assay: Effect on iNOS expression in human Bel7402/5-FU cells assessed as ratio of iNOS to beta-actin level at 0.1 uM after 48 hrs by Western blot analysis (reference value: 0.13); format: functional
[31] = tested on: Bel7402/5-FU; assay: Induction of apoptosis in human Bel7402/5-FU cells assessed as ratio of cleaved caspase-9 to beta-actin level at 0.1 uM after 48 hrs by Western blot analysis (reference value: 0.17); format: functional
[32] = tested on: Bel7402/5-FU; assay: Induction of microtubule disruption in human Bel7402/5-FU cells at 0.1 uM after 24 to 48 hrs by DAPI staining based immunofluorescence microscopic method; format: functional, cell-based
[33] = tested on: Bel7402/5-FU; assay: Effect on E-cadherin expression in human Bel7402/5-FU cells assessed as ratio of E-cadherin to beta-actin level at 0.1 uM after 48 hrs by Western blot analysis (reference value: 0.2); format: functional
[34] = tested on: Bel7402/5-FU; assay: Effect on MMP2 expression in human Bel7402/5-FU cells assessed as ratio of MMP2 to beta-actin level at 0.1 uM after 48 hrs by Western blot analysis (reference value: 0.3); format: functional
[35] = target: Mitogen-activated protein kinase; ERK1/ERK2 (Homo sapiens) (UniProt P27361+P28482); assay: Effect on ERK1/2 phosphorylation in human Bel7402/5-FU cells assessed as ratio of phosphorylated ERK1/2 to beta-actin level at 0.1 uM after 48 hrs by Western blot analysis (reference value: 0.59); format: cell-based
Chain of Mitogen-activated protein kinase; ERK1/ERK2 (Homo sapiens) (P27361 whole entry, looked up): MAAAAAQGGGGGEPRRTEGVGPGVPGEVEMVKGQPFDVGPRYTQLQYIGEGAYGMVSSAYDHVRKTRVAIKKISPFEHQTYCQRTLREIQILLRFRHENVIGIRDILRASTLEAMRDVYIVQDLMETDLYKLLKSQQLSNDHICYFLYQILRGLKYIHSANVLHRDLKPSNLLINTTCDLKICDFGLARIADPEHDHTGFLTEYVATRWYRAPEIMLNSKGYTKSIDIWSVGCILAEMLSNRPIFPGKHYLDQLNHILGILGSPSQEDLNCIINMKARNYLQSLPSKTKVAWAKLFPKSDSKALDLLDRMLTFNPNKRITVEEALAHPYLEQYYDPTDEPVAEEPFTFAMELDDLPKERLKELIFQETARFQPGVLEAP
Chain of Mitogen-activated protein kinase; ERK1/ERK2 (Homo sapiens) (P28482 whole entry, looked up): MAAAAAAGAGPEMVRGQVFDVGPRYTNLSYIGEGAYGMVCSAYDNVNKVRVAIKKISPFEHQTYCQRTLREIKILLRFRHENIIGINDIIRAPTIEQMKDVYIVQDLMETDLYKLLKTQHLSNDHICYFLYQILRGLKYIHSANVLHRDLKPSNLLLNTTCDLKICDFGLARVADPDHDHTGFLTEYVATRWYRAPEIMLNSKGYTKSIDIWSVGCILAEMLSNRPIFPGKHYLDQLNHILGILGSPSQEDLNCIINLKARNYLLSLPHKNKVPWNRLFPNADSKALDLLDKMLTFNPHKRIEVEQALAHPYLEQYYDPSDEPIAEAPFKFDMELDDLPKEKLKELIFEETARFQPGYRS

[36] = tested on: Bel7402/5-FU; assay: Cell cycle arrest in human Bel7402/5-FU cells assessed as accumulation at S phase at 0.1 uM after 48 hrs by propidium iodide staining based flow cytometry (reference value: 12.62%); format: functional
[37] = tested on: Bel7402/5-FU; assay: Induction of apoptosis in human Bel7402/5-FU cells assessed as reduction in cell number at 0.1 uM after 24 hrs by Hoechst 33342 staining based fluorescent microscopic method; format: functional

O=c1[nH]cc(F)c(=O)[nH]1 [FLUOROURACIL]
Ratio IC50 [1]: >16.83
IC50 [2]: > 100 µM
IC50 [3]: 5.94 µM
IC50 [4]: 32.5 µM

COc1cc([C@@H]2c3cc4c(cc3[C@H](OC(=O)c3ccccc3OC(C)=O)[C@H]3COC(=O)[C@H]23)OCO4)cc(OC)c1OC
Ratio IC50 [1]: 0.32
Ratio [5]: 0.14
Ratio [6]: 0.31
Ratio [7]: 0.39
Ratio [8]: 0.28
Ratio [9]: 0.17
Activity [10]: 5.45%
Activity [11]: Active
Ratio [12]: 0.31
Activity [13]: 17.03%
Activity [14]: 5.23%
IC50 [2]: 0.065 µM
Activity [15]: Active
Activity [16]: Active
Ratio [17]: 0.57
Activity [18]: 65.12%
Activity [19]: Active
Ratio [20]: 0.1
Ratio [21]: 0.09
Activity [22]: 58.28%
Ratio [23]: 0.2
Ratio [24]: 0.52
Ratio [25]: 0.47
Activity [26]: 24.2%
Ratio [27]: 0.29
Ratio [28]: 0.53
IC50 [3]: 0.199 µM
Activity [29]: Active
Ratio [30]: 0.16
Ratio [31]: 0.57
Activity [32]: Active
Ratio [33]: 0.31
Ratio [34]: 0.16
Ratio [35]: 0.19
IC50 [4]: 0.09 µM
Activity [36]: 24.69%
Activity [37]: Active

CC(=O)Oc1ccccc1C(=O)O [ASPIRIN]
IC50 [2]: > 100 µM
IC50 [3]: > 100 µM
IC50 [4]: > 100 µM

CC(C)Cc1ccc(C(C)C(=O)O)cc1 (stereo not given) [IBUPROFEN]
IC50 [2]: > 100 µM
IC50 [3]: > 100 µM
IC50 [4]: > 100 µM

COc1ccc2c(c1)c(CC(=O)O)c(C)n2C(=O)c1ccc(Cl)cc1 [INDOMETHACIN]
IC50 [2]: > 100 µM
IC50 [3]: > 100 µM
IC50 [4]: > 100 µM
